From patent publication US7238727B2, “Compositions for improving lipid metabolism” (Chugai Seiyaku Kabushiki Kaisha, priority 2000, dated 2007)

What was measured:
Type in all cases: in vivo
[1] = tested on: rabbit atherosclerotic model; experiment: Fatty liver by naked eye and HE stained liver sections; details: 0.2% cholesterol + 3.0% L-valine, 13 weeks
Protocol: (§1) Nine New Zealand White male rabbits aged 8 weeks (average body weight, 2.06 kg) were divided into three groups (n=3) by feed and fed for 13 weeks (temperature, 20 to 26° C.; humidity, 30 to 70%; illumination, 8:00 to 20:00). The untreated group was given an ordinary feed (NOSAN feed for laboratory animals, LABOR STOCK, manufactured by Nihon Nosan Kogyo, K.K.). As for the atherosclerotic model, the control group was given the ordinary feed plus 0.2% cholesterol (manufactured by Wako Pure Chemical Industries, Ltd.), and the valine group was given the ordinary feed plus 0.2% cholesterol plus 3.0% L-valine (JP, manufactured by Ajinomoto Co., Inc.). Throughout the experiment, the rabbits of each group were maintained on the feed (constant feeding) and water (using a water supplier) as desired. After 13 weeks, blood samples were collected from the abdominal aorta of the animals of each group under etherization and the animals were then sacrificed by bleeding. By subsequent autopsy, the degree of atherosclerotic lesion (plaque formation) in thoracic aorta and the degree of fatty liver were compared. Sections of the thoracic aorta and the liver were also prepared and examined histopathologically for intimal thickening and the formation of fat droplets.

[2] = tested on: matured rat models fed with high-fat diets; experiment: Intraperitoneal adipose tissue area by abdominal CT scanning; details: 4 weeks-feeding group
Text: (§2) After the completion of the pre-feeding, the animals were divided into 6 groups depending on feed and administration period. Rats of valine+lard groups were fed with a solid feed prepared by adding 8.4% lard (CAMERIA: manufactured by Romi Smilfood B. V.) and 3.0% L-valine (JP, manufactured by Ajinomoto Co., Inc.) to a conventional feed (CMF: manufactured by Oriental Yeast Co., Ltd.) for 2 or 4 weeks. Animals of casein+lard groups (i.e., control groups) were fed with a solid feed prepared by adding 8.4% lard and 3.0% milk-origin casein (manufactured by Wako Pure Chemical Industries, Ltd.) to the conventional feed (CMF: manufactured by Oriental Yeast Co., Ltd.) for 2 or 4 weeks. Animals of normal food groups were fed with a solid feed which was the conventional feed (CMF: manufactured by Oriental Yeast Co., Ltd.) for 2 or 4 weeks. During the experimental period, the rats of each group were maintained on the feed (constant feeding) and water (using a water supplier) as desired. Each group had 3 rats which were fed in a single cage (temperature: 20 to 26° C., humidity: 30 to 70%, illumination: 8:00 to 20:00) throughout the experimental period.
22 days after the initiation of the experiment, one rat of each of the 4 weeks-feeding groups was subjected to the abdominal CT scanning (slice width: 5 mm) under anesthesia with Nembutal. From the CT image thus obtained, the intraperitoneal adipose tissue area was determined as the mean of the intraperitoneal adipose-containing areas in posterior 4 slices from the sites where no kidney was observed.

[3] = tested on: rabbit atherosclerotic model; experiment: Intimal thickening in HE stained thoracic aorta sections; details: 0.2% cholesterol + 3.0% L-valine, 13 weeks
Protocol: as §1, with “droplets. Sections of the thoracic aorta were HE stained (hematoxylin-eosin stained).” for “droplets.”

[4] = tested on: matured rat models fed with high-fat diets; experiment: Peritesticular adipose tissue weight in rats fed a high-fat diet; details: for adipose tissue weight less than that of casein+lard group / mean adipose tissue weight relative to casein+lard group: 3.0% L-valine + 8.4% lard; for peritesticular adipose tissue weight: feed with 3.0% L-valine + 8.4% lard, mean±standard deviation, n=3
Protocol: To evaluate the effects of valine on lipid metabolism, the effects of the administration of L-valine containing feeds were examined on matured rat models fed with high-fat diets.
18 Crj:CD(SD) IGS male rats aged 12 weeks (body weight: 420 to 464 g, 443 g on average) were pre-fed for 5 days (not more than 4 animals/cage, temperature: 20 to 26° C., humidity: 30 to 70%, illumination: 8:00 to 20:00). During the pre-feeding period, the animals were maintained on a feed (constant feeding) and water (using a water supplier) as desired.
as §2
(§3) After 2 or 4 weeks, the blood samples of the animals of each group were collected from the abdominal aorta and then the animals were sacrificed by bleeding under etherization followed by autopsy. As intraperitoneal adipose tissue, the adipose tissue around the left testis and epididymis was weighed. The collected blood samples were subjected to a serobiochemical examination and the like.

[5] = tested on: rabbit atherosclerotic model; experiment: Plaque formation in aortic arch specimens; design: key to plaque formation in specimens of aortic arch: +: visible slight plaque formation; ++: visible moderate plaque formation; −: no visible plaque formation; details: 13 weeks; for plaque formation in specimens of aortic arch: feed with 0.2% cholesterol + 3.0% L-valine
Protocol: as §1, with “In order to evaluate the efficacy of valine on atherosclerosis and fatty liver, an L-valine containing feed was administered to a rabbit atherosclerotic model and its effect was investigated. Nine” for “Nine”

[6] = tested on: matured rat models fed with high-fat diets; experiment: Serobiochemical examination of rats fed a high-fat diet
Text: as §2, §3

[7] = 2 weeks feeding, mean±standard deviation, n=3
[8] = 4 weeks feeding, mean±standard deviation, n=3

CC(C)[C@H](N)C(=O)O [valine, L-valine]
yellowing of the liver (fatty liver), naked eye [1]: no yellowing of the liver was observed, or yellowing of the liver was visible but to a lesser extent than in the control group | fat droplets and swelling of hepatocytes ([1]; HE stained liver sections): hepatocytes contained such a small number of fat droplets that they experienced no visible swelling | increase in the intraperitoneal adipose tissue area versus casein+lard group ([2]; CT): more inhibited | intraperitoneal adipose tissue area ([2]; CT 22 days after initiation, n=1): 3.2 cm^2 | intraperitoneal adipose tissue relative to casein+lard group ([2]; CT, n=1): about 0.65 times | intimal thickening of thoracic aorta [3]: intimal thickening was hardly visible | adipose tissue weight compared with normal food group ([4]; 2 weeks feeding): smaller than that of the normal food group | adipose tissue weight less than that of casein+lard group ([4]; 2 weeks feeding): 30% | mean adipose tissue weight relative to casein+lard group ([4]; 2 weeks feeding): about 0.70 times | peritesticular adipose tissue weight ([4]; 2 weeks feeding): 2.55 ± 0.38 g | adipose tissue weight compared with normal food group ([4]; 4 weeks feeding): smaller than that of the normal food group | adipose tissue weight less than that of casein+lard group ([4]; 4 weeks feeding): 26% | mean adipose tissue weight relative to casein+lard group ([4]; 4 weeks feeding): about 0.74 times | peritesticular adipose tissue weight ([4]; 4 weeks feeding): 2.92 ± 0.40 g | increase in the adipose tissue weight ([4]; both 2 weeks and 4 weeks feeding, feed intake almost the same): inhibited | plaque formation compared with control group ([5]; 0.2% cholesterol + 3.0% L-valine, n=3): no plaque formation was visible, or plaque formation was visible but to a lesser extent than in the control group | plaque formation in specimens of aortic arch ([5]; animal 1): − | plaque formation in specimens of aortic arch ([5]; animal 2): − | plaque formation in specimens of aortic arch ([5]; animal 3): + | mean free fatty acid level relative to casein+lard group ([6]; 2 weeks feeding): about 0.73 times | mean lipid peroxide level relative to casein+lard group ([6]; 2 weeks feeding): about 0.42 times | mean triacylglycerol level relative to casein+lard group ([6]; 2 weeks feeding): about 0.54 times | mean β-lipoprotein level relative to casein+lard group ([6]; 2 weeks feeding): about 0.53 times | mean serum free fatty acid level [6, 7]: 0.35±0.06 mEq/L | mean serum lipid peroxide level [6, 7]: 1.1 ± 0.7 nmol/dL | mean serum triacylglycerol level [6, 7]: 52.0 ± 21.9 mg/dL | mean serum β-lipoprotein level [6, 7]: 33.3 ± 14.5 mg/dL | mean free fatty acid level relative to casein+lard group ([6]; 4 weeks feeding): about 0.82 times | mean triacylglycerol level relative to casein+lard group ([6]; 4 weeks feeding): about 0.60 times | mean β-lipoprotein level relative to casein+lard group ([6]; 4 weeks feeding): about 0.62 times | mean serum free fatty acid level [6, 8]: 0.36±0.11 mEq/L | mean serum triacylglycerol level [6, 8]: 67.7 ± 33.5 mg/dL | mean serum β-lipoprotein level [6, 8]: 41.0 ± 10.8 mg/dL
